Data from patent publication US20230346931A1, “ALTERNATIVE SURFACTANTS AS STABILIZERS FOR THERAPEUTIC PROTEIN FORMULATIONS” (Hoffmann-La Roche Inc., priority 2020, published 2023).

Tests used:
Assay type in all cases: physicochemical
[1] = system: model mAb; experiment: Thermal conformational protein stability in presence of surfactants (nanoDSF); conditions: for change in thermal conformational stability properties: already at lower concentrations of 0.1 & mg/mL; for effect on mAbs' conformational stability: elevated surfactant concentrations; for change of Tm1: surfactant 10 mg/mL
From the text: Conformational protein stability was investigated with the Prometheus NT.Plex (NanoTemper Technologies GmbH, München, Germany). The device allows the label-free fluorimetric analysis of the change in intrinsic protein fluorescence from aromatic tryptophan and tyrosine residues by using small quantities of solution. Thermal induced protein unfolding was monitored by detecting the emission shift at 330 nm and 350 nm at a laser power of 5%. The nanoDSF grade standard capillary chips (NanoTemper Technologies, München, Germany) were filled with 10 μL of freshly prepared (t0) formulation containing 25 mg/mL mAb compounded with either 0.01, 0.1, 1 or 10 mg/mL of the specific surfactant. Sodium dodecyl sulfate (SDS) was taken as positive control since the charge as been reported to lead to destabilization of proteins presumably by chare-charge interactions. Samples were heated from 25 to 95° C. with a constant heating ramp of 0.5° C. per minute. The PR.StabilityAnalysis software (NanoTemper Technologies, München, Germany) automatically calculated the onset (Ton) and first transition point (Tm1) temperature of the melting curve. Data reported are the mean value of three individual measurements.
Stability indicating parameters being the onset temperature (Ton) of unfolding and the first melting transition (Tm1) were measured for the model mAb in presence of surfactants at concentrations ranging from 0.01 mg/mL to 10 mg/mL (see FIG. 4).

[2] = system: mAb 1; experiment: Protein stability in presence of surfactants after mechanical stresses (shaking, freeze-thaw) and thermal stress, mAb 1; conditions: for particle formation upon shaking: 200 rpm, 7 days, 5° C. and 25° C.; for SVP ≥10 μm per container after shaking: criteria of maximum 6,000 particles≥10 μm per container
Procedure: (§1) Surfactant performance screens were carried out with 0.1 and 1 mg/mL of the surfactant in the formulation of the model mAb described within the Materials section. After compounding the liquid samples were sterile filtered through 0.22 μm Millex Sterivex™ GV (Millipore, Bedford, USA) filter units, filled into 6 mL type 1 glass vials and closed with Ø 20 mm teflon® coated serum stoppers (DAIKYO Seiko Ltd., Tokyo, Japan). The stoppered vials were crimped using an aluminum cap (Infochroma AG, Goldau, Switzerland). The corresponding placebo formulations were equally prepared, formulated and used as respective controls.
To evaluate the effects of the surfactants on the mAb's stability the formulations were exposed to various interfacial stress conditions like agitation and various freeze-thaw cycles. Shaking stress was carried by placing the vials horizontally for seven days at 5° C. and 25° C. protected from light within a shaker (HS 260 Control Model; IKA Werke GmbH & Co. KG; Staufen, Germany) at constant 200 rounds per minute (rpm). Freeze-thaw (F/T) stress was performed by exposing the vials to five consecutive cycles of freezing at −20° C. and thawing at 5° C.
(§2) Thermal stability data was generated by storing the liquid protein formulations for up to 24 months (mo) at 5° C., for 6 months at 25° C./60% relative humidity (rH) and 12 weeks at 40° C./75% rH. Samples were analyzed at initial time point (t0) and after 1 mo, 3 mo, 6 mo, 12 mo, 18 mo and 24 months of storage using the subsequently described analytical methods
Enhanced visual inspection was performed as previously described using a Seidenader V 90-T machine (Seidenader Maschinenbau GmbH, Markt Schwaben, Germany)[58]. The number of particles were categorized into four classes: class (I) is equivalent to 0 particles, class (II) is equivalent to 1-5 particles, class (III) is equivalent to 6-10 particles and class (IV) is equivalent to >10 particles.
Turbidity was determined as previously described in literature and according to Ph. Eur. 2.2.1 using a 2100AN turbidimeter (Hach Lange GmbH, Dusseldorf, Germany) calibrated with a StablCal® calibration kit (Hach Lange GmbH). Results were given as Nephelometic Turbidity Units (NTU).
The color of the solutions was assessed by means of a LICO 690 Colorimeter (Hach Lange GmbH). Classification was performed according to the color scale described in Ph. Eur. 2.2.2.. Data presented herein show the degree of color change according to color scale values of Ph.Eur. 2.2.2: class (I) is equivalent to color scale values of 9, 8, 7, or colorless; class (II) is equivalent to color scale values of 6 or 5; class (III) is equivalent to color scale values of 4 or 3; and class (IV) is equivalent to color scale values of 2 or 1.
Sub-visible particle (SVP) count was measured by means of light obscuration using a HIAC 9703+ liquid particle counting system (Skan AG, Allschwil, Switzerland) and PharmSpec 3 (Hach Lange GmbH) software. The applied measurement technique was adapted from the method described in Ph.Eur. 2.9.19 [61] and USP <787>[62]. After rinsing the system with sample solution, four runs with a sample volume of 0.2 mL were performed. The final cumulative particle count was obtained by calculating the mean ±SD (standard deviation) from the last three measurements. SVP bigger than or equal to 2, 5, 10 and 25 μm were measured and presented as cumulative counts per mL of solution.
Detection of soluble mAb aggregates, in the following referred to as high molecular weight species (HMWS), the monomer and the low molecular weight species (LMWs) were analyzed by SE-HPLC. The utilized system comprised an Alliance 2695 HPLC instrument equipped with a 2487 UV detector (both from Waters Corporation, Milford, MA). The autosampler temperature was set to 5° C. and the system was loaded with total 100 μg of the mAb. […]

[3] = Surface tension measurement (dynamic surface tension, DST); conditions: mAb formulation at t0
Procedure: Surface tension measurements were performed by means of liquid handling stations according to a method described by Amrhein et al.[63]. Briefly, the measurement depends on the correlation between drop mass and the surface tension of the sample. For this study a fully automated liquid handling station Freedom 384 EVO 200 (Tecan, Crailsheim, Germany) was equipped with an analytical balance (Mettler Toledo, Columbus, USA). The system contains stainless fixed tips which aspirate the sample with 100 μL·s^−1 from a sealed 1 mL round bottom LoBind® Deepwell Plate (Eppendorf, Hamburg, Germany). The sample was dispensed with 3 μL·s^−1 to a second round bottom Deepwell Plate 96/500 μL (Eppendorf, Hamburg, Germany) mounted on an analytical balance. The weight was recorded continuously using fully automated routines written in Matlab R2017b (MathWorks, Natick, MA, USA). The surface tension of water (72.6 mN/m) was used as a reference for calculations. The mean of three individual measurements of the samples (at t0) is reported as surface tension.

[4] = system: mAb 1; experiment: Long-term protein stability (storage at 5° C. and 25° C.), mAb 1; conditions: higher concentrations
Procedure: as §1
as §2, with “methods […]” for “methods”
Turbidity was determined as previously described in literature and according to Ph. […]
The color of the solutions was assessed by means of a LICO 690 Colorimeter (Hach Lange GmbH). […]
Sub-visible particle (SVP) count was measured by means of light obscuration using a HIAC 9703+ liquid particle counting system (Skan AG, Allschwil, Switzerland) and PharmSpec 3 (Hach Lange GmbH) software. […]

C[C@H](CCC(=O)NCC(=O)[O-])[C@H]1CC[C@H]2[C@@H]3[C@H](O)C[C@@H]4C[C@H](O)CC[C@]4(C)[C@H]3C[C@H](O)[C@]12C.O.[Na+] [NaGC, sodium glycocholate hydrate]
change in thermal conformational stability properties [1]: strong decrease in thermal conformational stability properties

CCCCCCCCCCCCOS(=O)(=O)[O-].[Na+] [SDS, Sodium dodecyl sulfate, reference compound]
effect on Ton and Tm1 compared to reference formulation without surfactant ([1]; surfactant 0.01 to 10 mg/mL): concentration dependent destabilizing effect

sodium deoxy cholate [NaDC]
change in thermal conformational stability properties [1]: strong decrease in thermal conformational stability properties

CCCCCCCCC(=O)N(C)C[C@H](O)[C@@H](O)[C@H](O)[C@H](O)CO [MEGA-9, nonanoyl-N-methylglucamide]
effect on mAbs' conformational stability [1]: destabilizing effect | change of Tm1 [1]: comparable destabilizing effect | change of Ton ([1]; surfactant 1 and 10 mg/mL): comparable destabilizing effect

CCCCCCCCCC(=O)N(CCO)C[C@H](O)[C@@H](O)[C@H](O)[C@H](O)CO [HEGA-10, decanoyl-N-hydroxyethylglucamide]
effect on mAbs' conformational stability [1]: destabilizing effect | change of Tm1 [1]: comparable destabilizing effect | change of Ton ([1]; surfactant 1 and 10 mg/mL): comparable destabilizing effect

Chobimalt
effect on mAbs' conformational stability [1]: no impact | change of Ton ([1]; surfactant 1 mg/mL or higher): slight increase of Ton | color after shaking stress [2]: strong change in color | stabilizing effect upon F/T studies ([2]; 5 freeze-thaw cycles): missing stabilizing effect at the interface | particle formation upon shaking [2]: strongest particle formation upon shaking | SVP ≥10 μm per container after shaking [2]: exceeded USP <787> criteria | dynamic surface tension [3]: around 73 mN/m

C[C@H](CCC(=O)N(CCCNC(=O)[C@H](O)[C@@H](O)[C@H](O)[C@H](O)CO)CCCNC(=O)[C@H](O)[C@@H](O)[C@H](O)[C@H](O)CO)[C@H]1CC[C@H]2[C@@H]3CC[C@@H]4C[C@H](O)CC[C@]4(C)[C@H]3C[C@H](O)[C@]12C [DBC, Deoxy-BigCHAP]
effect on mAbs' conformational stability [1]: destabilizing effect | change of Tm1 [1]: slight decrease | change of Ton ([1]; surfactant 1 and 10 mg/mL): slight decrease in Ton | visible particles initially ([2]; 1 mg/mL surfactant): many particles initially | particle formation upon shaking [2]: particle formation particularly after agitation | SVP ≥10 μm per container after shaking [2]: exceeded USP <787> criteria | solubility in formulation [4]: solubility issues
